Where two headings read alike, the source gives them in different places.
Columns and labels:
[1] = target: Pim1 kinase (Homo sapiens, UniProt P11309); experiment: Pim1 ATP depletion assay; format: biochemical;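 note: Luciferase-luciferin luminescence readout of residual ATP after PIM1 transfers phosphate to a peptide substrate, 40 µM ATP added, reaction run to roughly half ATP consumption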
[2] = target: Pim2 kinase (Homo sapiens, UniProt Q9P1W9); experiment: Pim2 ATP depletion assay; format: biochemical;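 note: Luciferase-based luminescent readout of ATP remaining after PIM2 phosphorylates a BAD peptide, final 5 nM enzyme, 4 µM ATP, 10 µM peptide, 2.5% DMSO, run to roughly half ATP consumption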
Chain of Pim2 kinase (Q9P1W9 whole entry): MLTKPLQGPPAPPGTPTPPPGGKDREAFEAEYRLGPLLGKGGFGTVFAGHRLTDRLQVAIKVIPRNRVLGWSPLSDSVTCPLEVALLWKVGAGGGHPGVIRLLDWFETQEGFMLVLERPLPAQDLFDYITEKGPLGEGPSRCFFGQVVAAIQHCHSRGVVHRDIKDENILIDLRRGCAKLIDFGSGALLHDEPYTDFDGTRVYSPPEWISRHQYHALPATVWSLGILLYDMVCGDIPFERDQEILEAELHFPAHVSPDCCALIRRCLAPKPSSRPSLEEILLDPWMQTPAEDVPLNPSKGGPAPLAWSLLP

[3] = target: Pim3 kinase (Homo sapiens, UniProt Q86V86); experiment: Pim3 ATP depletion assay; format: biochemical
[4] = test system: KMS 11 (human myeloma cell line); experiment: Cell proliferation assay (CellTiter-Glo), KMS 11; format: cell-based; details: KMS11 cells
Experimental: (§1) KMS 11 (human myeloma cell line), were cultured in IMDM supplemented with 10% FBS, sodium pyruvate and antibiotics. Cells were plated in the same medium at a density of 2000 cells per well into 96 well tissue culture plates, with outside wells vacant, on the day of assay. MM1.s (human myeloma cell line), were cultured in RPMI1640 supplemented with 10% FBS, sodium pyruvate and antibiotics. Cells were plated in the same medium at a density of 5000 cells per well into 96 well tissue culture plates, with outside wells vacant, on the day of assay.
(§2) Test compounds supplied in DMSO were diluted into DMSO at 500 times the desired final concentrations before dilution into culture media to 2 times final concentrations. Equal volumes of 2× compounds were added to the cells in 96 well plates and incubated at 37° C. for 3 days.
(§3) After 3 days plates were equilibrated to room temperature and equal volume of CellTiter-Glow Reagent (Promega) was added to the culture wells. The plates were agitated briefly and luminescent signal was measured with luminometer. The percent inhibition of the signal seen in cells treated with DMSO alone vs. cells treated with control compound was calculated and used to determine EC50 values (i.e., the concentration of a test compound that is required to obtain 50% of the maximum effect in the cells) for tested compounds, as shown in Example 763.

[5] = test system: MM1.s (human myeloma cell line); experiment: Cell proliferation assay (CellTiter-Glo), MM1.s; format: cell-based; details: MM1.s cells
Experimental: as §1, §2, §3

[6] = Pim1 ATP depletion assay, read-out: IC50 (μM) PIM1
[7] = Pim1 ATP depletion assay, read-out: PIM1 IC50

Chain of Pim1 kinase (P11309 whole entry): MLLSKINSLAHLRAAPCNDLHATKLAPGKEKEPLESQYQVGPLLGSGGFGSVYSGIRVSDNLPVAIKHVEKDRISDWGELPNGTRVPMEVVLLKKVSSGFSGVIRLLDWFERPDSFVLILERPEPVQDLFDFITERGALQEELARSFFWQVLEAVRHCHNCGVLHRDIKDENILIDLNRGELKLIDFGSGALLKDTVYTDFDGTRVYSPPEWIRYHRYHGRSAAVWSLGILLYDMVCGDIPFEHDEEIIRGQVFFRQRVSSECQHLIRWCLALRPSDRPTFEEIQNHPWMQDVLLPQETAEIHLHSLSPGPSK

IC50 [1, 6] [µM] | IC50 ([2]; read-out: IC50 (μM) PIM2) [µM] | IC50 ([3]; read-out: IC50 (μM) PIM3) [µM] | EC50 ([4]; read-out: EC50 (μM) KMS11) [µM] | EC50 ([5]; read-out: EC50 (μM) MM1.s) [µM] | IC50 [1, 7] [µM] | IC50 ([2]; read-out: PIM2 IC50) [µM] | IC50 ([3]; read-out: PIM3 IC50) [µM] | EC50 ([4]; read-out: KMS11 EC50) [µM] | EC50 ([5]; read-out: MM1.s EC50) [µM] | SMILES | IC50 [1] [µM]
< 1 | < 1 | < 1 | < 1 | < 1 |  |  |  |  |  | CO[C@@H]1C[C@H](N)CN(c2ccncc2NC(=O)c2nc(-c3c(F)cccc3F)ccc2N)C1 [Example 300, 3-Amino-6-(2,6-difluoro-phenyl)-pyridine-2-carboxylic acid (3-amino-5-methoxy-3,4,5,6-tetrahydro-2H-[1,4′]bi-pyridinyl-3′-yl)-amide] | 
< 1 | < 1 | < 1 | 1 to 5 | 5 to 10 |  |  |  |  |  | N[C@H]1CCCN(c2ccncc2NC(=O)c2ccc(F)c(-c3ccccc3)n2)C1 [Example 442, 5-Fluoro-6-phenyl-pyridine-2-carboxylic acid (3-amino-3,4,5,6-tetrahydro-2H-[1,4′]bipyridinyl-3′-yl)-amide] | 
< 1 | < 1 | < 1 | 1 to 5 | 5 to 10 |  |  |  |  |  | CC(C)NC(=O)c1ccc(F)c(-c2nc(C(=O)Nc3cnccc3N3CCC[C@H](N)C3)ccc2F)c1 [Example 443, 5-Fluoro-6-(2-fluoro-5-isopropylcarbamoyl-phenyl)-pyridine-2-carboxylic acid (3-amino-3,4,5,6-tetrahydro-2H-[1,4′]bipyridinyl-3′-yl)-amide] | 
< 1 | < 1 | < 1 | 1 to 5 | 1 to 5 |  |  |  |  |  | Nc1ccc(-c2c(F)cccc2F)nc1C(=O)Nc1cnccc1N1CCC[C@@H](N)C1 [Example 462, 3-Amino-6-(2,6-difluoro-phenyl)-pyridine-2-carboxylic acid (3-amino-3,4,5,6-tetrahydro-2H-[1,4′]bipyridinyl-3′-yl)-amide] | 
< 1 | < 1 | < 1 | 1 to 5 | 1 to 5 |  |  |  |  |  | CCCOc1ccc(F)c(-c2ccc(N)c(C(=O)Nc3cnccc3N3CCC[C@H](N)C3)n2)c1F [Example 491, 3-Amino-6-(2,6-difluoro-3-propoxy-phenyl)-pyridine-2-carboxylic acid (3-amino-3,4,5,6-tetrahydro-2H-[1,4′]bipyridinyl-3′-yl)-amide] | 
< 1 | < 1 | < 1 | < 1 | 1 to 5 |  |  |  |  |  | CCCOc1ccc(F)c(-c2nc(C(=O)Nc3cnccc3N3CCC[C@H](N)C3)c(N)cc2F)c1F [Example 494, 3-Amino-6-(2,6-difluoro-3-propoxy-phenyl)-5-fluoro-pyridine-2-carboxylic acid (3-amino-3,4,5,6-tetrahydro-2H-[1,4′]bipyridinyl-3′-yl)-amide] | 
< 1 | < 1 | < 1 | < 1 | < 1 |  |  |  |  |  | CC(C)Oc1ccc(F)c(-c2nc(C(=O)Nc3cnccc3N3CCC[C@H](N)C3)c(N)cc2F)c1F [Example 496, 3-Amino-6-(2,6-difluoro-3-isopropoxy-phenyl)-5-fluoro-pyridine-2-carboxylic acid (3-amino-3,4,5,6-tetrahydro-2H-[1,4′]bipyridinyl-3′-yl)-amide] | 
< 1 | < 1 | < 1 | < 1 | < 1 |  |  |  |  |  | Nc1cc(F)c(-c2c(F)cccc2F)nc1C(=O)Nc1cnccc1N1CCC[C@H](N)C1 [Example 516, 3-Amino-6-(2,6-difluoro-phenyl)-5-fluoro-pyridine-2-carboxylic acid (3-amino-3,4,5,6-tetrahydro-2H-[1,4′]bipyridinyl-3′-yl)-amide] | 
< 1 | < 1 | < 1 | 1 to 5 | 1 to 5 |  |  |  |  |  | Nc1cc(F)c(-c2ccccc2F)nc1C(=O)Nc1cnccc1N1CCC[C@H](N)C1 [Example 517, 3-Amino-5-fluoro-6-(2-fluoro-phenyl)-pyridine-2-carboxylic acid (3-amino-3,4,5,6-tetrahydro-2H-[1,4′]bipyridinyl-3′-yl)-amide] | 
 |  |  |  |  | < 1 | < 1 | < 1 | 1 to 5 | 1 to 5 | N[C@H]1CCCN(c2ccncc2NC(=O)c2nc(-c3c(F)cccc3F)ccc2F)C1 [Example 570, 6-(2,6-Difluoro-phenyl)-3-fluoro-pyridine-2-carboxylic acid (3-amino-3,4,5,6-tetrahydro-2H-[1,4′]bipyridinyl-3′-yl)-amide] | 
 |  |  |  |  | < 1 | < 1 | < 1 | 1 to 5 | 1 to 5 | CCCOc1ccc(F)c(-c2ccc(N)c(C(=O)Nc3cnccc3N3C[C@@H](N)C[C@@H](F)C3)n2)c1 [Example 577, 3-Amino-6-(2-fluoro-5-propoxy-phenyl)-pyridine-2-carboxylic acid (3-amino-5-fluoro-3,4,5,6-tetrahydro-2H-[1,4′]bipyridinyl-3′-yl)-amide] | 
 |  |  |  |  | < 1 | < 1 | < 1 | < 1 | 1 to 5 | CCCOc1ccc(F)c(-c2ccc(N)c(C(=O)Nc3cnccc3N3C[C@@H](N)C[C@@H](OC)C3)n2)c1 [Example 579, 3-Amino-6-(2-fluoro-5-propoxy-phenyl)-pyridine-2-carboxylic acid (3-amino-5-methoxy-3,4,5,6-tetrahydro-2H-[1,4′]bi-pyridinyl-3′-yl)-amide] | 
 |  |  |  |  | < 1 | < 1 | < 1 | 1 to 5 | 1 to 5 | CO[C@@H]1C[C@H](N)CN(c2ccncc2NC(=O)c2nc(-c3ccccc3)ccc2N)C1 [Example 580, 3-Amino-6-phenyl-pyridine-2-carboxylic acid (3-amino-5-methoxy-3,4,5,6-tetrahydro-2H-[1,4′]bipyridinyl-3′-yl)-amide] | 
 |  |  |  |  | < 1 | < 1 | < 1 | < 1 | 1 to 5 | N[C@@H]1CN(c2ccncc2NC(=O)c2ccc(F)c(-c3c(F)cccc3F)n2)CC[C@H]1O [Example 683, 6-(2,6-Difluoro-phenyl)-5-fluoro-pyridine-2-carboxylic acid (3-amino-4-hydroxy-3,4,5,6-tetrahydro-2H-[1,4′]bi-pyridinyl-3′-yl)-amide] | 
 |  |  |  |  | < 1 | < 1 | < 1 | 1 to 5 | 1 to 5 | Nc1ccc(-c2ncccc2F)nc1C(=O)Nc1cnccc1N1CCC[C@H](N)C1 [Example 702, 5-Amino-3′-fluoro-[2,2′]bi-pyridinyl-6-carboxylic acid (3-amino-3,4,5,6-tetrahydro-2H-[1,4′]bipyridinyl-3′-yl)-amide] | 
 |  |  |  |  | < 1 | < 1 | < 1 | < 1 | 1 to 5 | CC(C)NC(=O)c1ccc(F)c(-c2nc(C(=O)Nc3cnccc3N3CCC[C@H](N)C3)c(N)cc2F)c1F [Example 736, 3-Amino-6-(2,6-difluoro-3-isopropylcarbamoyl-phenyl)-5-fluoro-pyridine-2-carboxylic acid (3-amino-3,4,5,6-tetra-hydro-2H-[1,4′]bipyridinyl-3′-yl)-amide] | 
 |  |  |  |  | < 1 | < 1 | < 1 | 1 to 5 | 1 to 5 | Nc1cc(F)c(-c2ncccc2F)nc1C(=O)Nc1cnccc1N1CCC[C@H](N)C1 [Example 744, 5-Amino-3,3′-difluoro-[2,2′]bi-pyridinyl-6-carboxylic acid (3-amino-3,4,5,6-tetrahydro-2H-[1,4′]bipyridinyl-3′-yl)-amide] | 
 |  |  |  |  | < 1 | < 1 | < 1 | 1 to 5 | < 1 | CC(C)NC(=O)c1ccc(F)c(-c2ccc(N)c(C(=O)Nc3cnccc3N3CC[C@H](O)[C@H](N)C3)n2)c1 [Example 753, 3-Amino-6-(2-fluoro-5-isopropyl-carbamoyl-phenyl)-pyridine-2-carboxylic acid (3-amino-4-hydroxy-3,4,5,6-tetrahydro-2H-[1,4′]bipyridinyl-3′-yl)-amide] | 

SMILES | IC50 [1, 6] [µM] | IC50 ([2]; read-out: IC50 (μM) PIM2) [µM] | IC50 ([3]; read-out: IC50 (μM) PIM3) [µM] | EC50 ([4]; read-out: EC50 (μM) KMS11) [µM] | EC50 ([5]; read-out: EC50 (μM) MM1.s) [µM] | IC50 [1, 7] [µM] | IC50 ([2]; read-out: PIM2 IC50) [µM] | IC50 ([3]; read-out: PIM3 IC50) [µM] | EC50 ([4]; read-out: KMS11 EC50) [µM] | EC50 ([5]; read-out: MM1.s EC50) [µM] | IC50 [1] [µM]
Nc1ccc(-c2c(F)cccc2F)nc1C(=O)Nc1cnccc1N1CC[C@@H](O)[C@H](N)C1 [Example 679, 3-Amino-6-(2,6-difluoro-phenyl)-pyridine-2-carboxylic acid (3-amino-4-hydroxy-3,4,5,6-tetrahydro-2H-[1,4′]bi-pyridinyl-3′-yl)-amide] |  |  |  |  |  |  | < 1 | < 1 | 1 to 5 | < 1 | < 1
Nc1ccc(-c2c(F)cccc2F)nc1C(=O)Nc1cnccc1N1CC[C@H](O)[C@H](N)C1 [Example 754, 3-Amino-6-(2,6-difluoro-phenyl)-pyridine-2-carboxylic acid (3-amino-4-hydroxy-3,4,5,6-tetra-hydro-2H-[1,4′]bipyridinyl-3′-yl)-amide] |  |  |  |  |  |  | < 1 | < 1 | < 1 | 1 to 5 | < 1

Source: US20140249135A1, “PIM KINASE INHIBITORS AND METHODS OF THEIR USE” (NOVARTIS AG, priority 2007, published 2014)
